According to PubChem BioAssay (NCI):
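Five concentrations, 48 hours, 96-well plates. The concentration for full growth arrest is given as TGI.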

Experiments:
Assay in all cases: growth of human tumour cells (NCI), 48 h
[1] = system: 786-0 renal
[2] = system: A549 NSCLC
[3] = system: ACHN renal
[4] = system: BT-549 breast
[5] = system: CAKI-1 renal
[6] = system: COLO 205 colon
[7] = system: DU-145 prostate
[8] = system: EKVX NSCLC
[9] = system: HCC-2998 colon
[10] = system: HCT-116 colon
[11] = system: HCT-15 colon
[12] = system: HOP-62 NSCLC
[13] = system: HOP-92 NSCLC
[14] = system: HT29 colon
[15] = system: IGROV1 ovarian
[16] = system: KM12 colon
[17] = system: LOX IMVI melanoma
[18] = system: M14 melanoma
[19] = system: MCF7 breast
[20] = system: MDA-MB-231 breast
[21] = system: MDA-MB-435
[22] = system: MDA-N
[23] = system: MOLT-4 leukemia
[24] = system: NCI-H226 lung
[25] = system: NCI-H23 lung
[26] = system: NCI-H460 lung
[27] = system: NCI/ADR-RES ovarian
[28] = system: OVCAR-3 ovarian
[29] = system: OVCAR-4 ovarian
[30] = system: OVCAR-5 ovarian
[31] = system: OVCAR-8 ovarian
[32] = system: PC-3 prostate
[33] = system: SF-295 CNS
[34] = system: SF-539 CNS
[35] = system: SK-MEL-2 melanoma
[36] = system: SK-MEL-28 melanoma
[37] = system: SK-MEL-5 melanoma
[38] = system: SK-OV-3 ovarian
[39] = system: SN12C renal
[40] = system: SNB-19 CNS
[41] = system: SNB-75 CNS
[42] = system: SW-620 colon
[43] = system: T-47D breast
[44] = system: TK-10 renal
[45] = system: U251 CNS
[46] = system: UACC-257 melanoma
[47] = system: UACC-62 melanoma
[48] = system: UO-31 renal
[49] = system: A498 renal
[50] = system: CCRF-CEM leukemia
[51] = system: HL-60(TB) leukemia
[52] = system: HS 578T breast
[53] = system: K-562 leukemia
[54] = system: NCI-H522 lung
[55] = system: RPMI-8226 leukemia
[56] = system: RXF 393 renal
[57] = system: SF-268 CNS
[58] = system: MALME-3M melanoma
[59] = system: SR leukemia

O=C(NNc1cn[nH]c(=O)c1Cl)/C(=C/c1ccc2c(c1)OCO2)NC(=O)c1ccccc1
TGI [1]: > 100 µM
TGI [2]: > 100 µM
TGI [3]: > 100 µM
TGI [4]: 49.1 µM
TGI [5]: 56.2 µM
TGI [6]: > 100 µM
TGI [7]: > 100 µM
TGI [8]: > 100 µM
TGI [9]: > 100 µM
TGI [10]: > 100 µM
TGI [11]: > 100 µM
TGI [12]: > 100 µM
TGI [13]: > 100 µM
TGI [14]: > 100 µM
TGI [15]: > 100 µM
TGI [16]: > 100 µM
TGI [17]: > 100 µM
TGI [18]: > 100 µM
TGI [19]: > 100 µM
TGI [20]: > 100 µM
TGI [21]: > 100 µM
TGI [22]: > 100 µM
TGI [23]: > 100 µM
TGI [24]: > 100 µM
TGI [25]: > 100 µM
TGI [26]: > 100 µM
TGI [27]: > 100 µM
TGI [28]: > 100 µM
TGI [29]: > 100 µM
TGI [30]: > 100 µM
TGI [31]: > 100 µM
TGI [32]: > 100 µM
TGI [33]: > 100 µM
TGI [34]: > 100 µM
TGI [35]: > 100 µM
TGI [36]: > 100 µM
TGI [37]: > 100 µM
TGI [38]: > 100 µM
TGI [39]: > 100 µM
TGI [40]: > 100 µM
TGI [41]: 86.2 µM
TGI [42]: > 100 µM
TGI [43]: > 100 µM
TGI [44]: > 100 µM
TGI [45]: > 100 µM
TGI [46]: > 100 µM
TGI [47]: > 100 µM
TGI [48]: > 100 µM

CCCn1c(=O)c2ccccc2[n+]2c(-c3ccc([N+](=O)[O-])cc3)csc12
TGI [1]: 76.3 µM
TGI [49]: 74.4 µM
TGI [2]: > 100 µM
TGI [3]: > 100 µM
TGI [4]: > 100 µM
TGI [5]: > 100 µM
TGI [50]: 82.5 µM
TGI [6]: > 100 µM
TGI [7]: > 100 µM
TGI [8]: > 100 µM
TGI [9]: > 100 µM
TGI [10]: > 100 µM
TGI [11]: > 100 µM
TGI [51]: 57.9 µM
TGI [12]: 80.8 µM
TGI [13]: > 100 µM
TGI [52]: > 100 µM
TGI [14]: > 100 µM
TGI [15]: > 100 µM
TGI [53]: 69.4 µM
TGI [16]: 78.3 µM
TGI [17]: 51.3 µM
TGI [18]: > 100 µM
TGI [19]: > 100 µM
TGI [20]: > 100 µM
TGI [21]: > 100 µM
TGI [22]: > 100 µM
TGI [23]: 79.9 µM
TGI [24]: > 100 µM
TGI [25]: > 100 µM
TGI [26]: > 100 µM
TGI [54]: 45.5 µM
TGI [27]: 36.5 µM
TGI [29]: > 100 µM
TGI [30]: > 100 µM
TGI [31]: 83.4 µM
TGI [32]: > 100 µM
TGI [55]: 55.7 µM
TGI [56]: 55.3 µM
TGI [57]: > 100 µM
TGI [33]: > 100 µM
TGI [34]: 49.2 µM
TGI [35]: > 100 µM
TGI [37]: 45.7 µM
TGI [38]: > 100 µM
TGI [39]: > 100 µM
TGI [40]: > 100 µM
TGI [41]: 94.6 µM
TGI [42]: > 100 µM
TGI [43]: > 100 µM
TGI [45]: > 100 µM
TGI [46]: > 100 µM
TGI [47]: > 100 µM
TGI [48]: 97.3 µM

CCOC(=O)/C(C#N)=C/c1ccc(CO)o1
TGI [1]: > 100 µM
TGI [49]: > 100 µM
TGI [2]: > 100 µM
TGI [3]: > 100 µM
TGI [5]: > 100 µM
TGI [6]: > 100 µM
TGI [7]: > 100 µM
TGI [8]: > 100 µM
TGI [9]: > 100 µM
TGI [10]: > 100 µM
TGI [11]: > 100 µM
TGI [12]: > 100 µM
TGI [52]: > 100 µM
TGI [14]: > 100 µM
TGI [15]: > 100 µM
TGI [53]: > 100 µM
TGI [16]: > 100 µM
TGI [17]: > 100 µM
TGI [18]: > 100 µM
TGI [58]: > 100 µM
TGI [19]: > 100 µM
TGI [20]: > 100 µM
TGI [21]: > 100 µM
TGI [22]: > 100 µM
TGI [23]: > 100 µM
TGI [24]: > 100 µM
TGI [25]: > 100 µM
TGI [26]: > 100 µM
TGI [54]: > 100 µM
TGI [27]: > 100 µM
TGI [28]: > 100 µM
TGI [29]: > 100 µM
TGI [30]: > 100 µM
TGI [31]: > 100 µM
TGI [32]: > 100 µM
TGI [55]: > 100 µM
TGI [56]: > 100 µM
TGI [57]: > 100 µM
TGI [33]: > 100 µM
TGI [34]: > 100 µM
TGI [36]: > 100 µM
TGI [37]: > 100 µM
TGI [38]: > 100 µM
TGI [39]: > 100 µM
TGI [40]: > 100 µM
TGI [41]: > 100 µM
TGI [59]: > 100 µM
TGI [42]: > 100 µM
TGI [43]: > 100 µM
TGI [44]: > 100 µM
TGI [45]: > 100 µM
TGI [46]: > 100 µM
TGI [47]: > 100 µM

COc1c(OC)c(O)c2c(=O)c(OC)c(-c3ccc4c(c3)OCO4)oc2c1O
TGI [1]: > 100 µM
TGI [49]: > 100 µM
TGI [2]: > 100 µM
TGI [3]: > 100 µM
TGI [4]: > 100 µM
TGI [5]: > 100 µM
TGI [50]: > 100 µM
TGI [6]: > 100 µM
TGI [7]: > 100 µM
TGI [8]: > 100 µM
TGI [9]: > 100 µM
TGI [10]: > 100 µM
TGI [11]: > 100 µM
TGI [51]: > 100 µM
TGI [12]: > 100 µM
TGI [13]: > 100 µM
TGI [52]: > 100 µM
TGI [14]: > 100 µM
TGI [15]: > 100 µM
TGI [53]: > 100 µM
TGI [16]: > 100 µM
TGI [17]: > 100 µM
TGI [18]: > 100 µM
TGI [58]: > 100 µM
TGI [19]: > 100 µM
TGI [20]: > 100 µM
TGI [21]: > 100 µM
TGI [22]: > 100 µM
TGI [23]: > 100 µM
TGI [24]: > 100 µM
TGI [25]: > 100 µM
TGI [26]: > 100 µM
TGI [54]: > 100 µM
TGI [27]: > 100 µM
TGI [28]: > 100 µM
TGI [29]: > 100 µM
TGI [30]: > 100 µM
TGI [31]: > 100 µM
TGI [32]: > 100 µM
TGI [56]: > 100 µM
TGI [57]: > 100 µM
TGI [33]: > 100 µM
TGI [34]: > 100 µM
TGI [35]: > 100 µM
TGI [36]: > 100 µM
TGI [37]: > 100 µM
TGI [38]: > 100 µM
TGI [39]: > 100 µM
TGI [40]: > 100 µM
TGI [41]: > 100 µM
TGI [42]: > 100 µM
TGI [43]: > 100 µM
TGI [44]: > 100 µM
TGI [45]: > 100 µM
TGI [46]: > 100 µM
TGI [47]: > 100 µM
TGI [48]: > 100 µM
